Key:
aortic arches = assay: Chick aortic arch assay; format: cell-based; details: for vessel length and number, sprouting induced by ECGS / length of tubes exiting from arches / number of tubes exiting from arches: 0.5-5 μg/ml; for vessel length and number, sprouting induced by ECGS: 100 μg/ml ECGS; for length of tubes exiting from arches / number of tubes exiting from arches: without ECGS; for toxicity in aortic arch assay (re-sprouting after washing): data not shown
Method: Aortic arches were removed from fertilized chicken eggs at day 13 of embryonic development. The eggs were cracked into a sterile 100 mm culture dish. The embryo was removed from its surroundings by cutting away the associated membranes and yolk sac. The chicken embryo was placed ventral side up to surgically expose the heart and aortic arches. The heart and aortic arch were removed and placed into a sterile culture dish containing PBS to which 1% penicillin-streptomycin was added. Arches, from which the surrounding adventitia had been removed, were cut into 0.8 mm sections. Each arch was placed onto drop of Matrigel that was deposited on the bottom of a 48-well culture plate just prior to adding the ring. An additional drop of ice-cold Matrigel was spread on each aortic arch. Matrigel was allowed to solidify before adding 500 μl of human endothelial-SFM basal growth medium. […] Quantitative evaluation of tubule formation was performed by a blinded observer on a scale of 1-3 (least to maximum sprouting).

integrin β subunits = assay: Multiple anti-integrin antibody binding assay, β subunits; format: cell-based; details: SVEC cells
Method: The specificity of tellurium-containing compounds to integrins was tested by examining the effect of AS101 and SAS on the attachment of SVEC cells to specific anti-integrin antibodies. Commercially available kits (R&D Biosystems) with anti-integrin coated wells were used, and attachment was determined according to the manufacturer's instructions.

B16F10 melanoma cells = assay: Tumor growth in vivo on CAM; set-up: species or system murine; details: 5 μg daily, 7 days
Method: B16F10 melanoma cells (10^6 cells/[…]) in Matrigel were added directly onto the CAM of the 7-days-old embryo (embryos were prepared as described hereinabove). AS101 and SAS (5 μg) were added daily. After a 7-days incubation, with treatment performed each day (PBS, AS101 or SAS), tumors were excised and weighed. Formalin-fixed tumor tissues were paraffin embedded, sectioned at 10 μm, and stained with hematoxylin and eosin (H&E) for examination of tumor cell proliferation and vessel density.

[1] = test system: chick chorioallantoic membrane; assay: Chick chorioallantoic membrane (CAM) angiogenesis assay; format: in vivo; details: 5 μg/ml combined with ECGS 50 μg/ml, 3 days
Method: Collagen I solution was prepared by mixing 1.8 ml of collagen I, 4.14 μl of […] NaOH and 0.2 ml of 10×PBS/200 mM HEPES (pH 7.4). 10 μl of a mixture containing 0.1 ml of the collagen I solution and 0.2 ml of PBS either with or without AS101 (5 μg/ml) or SAS (5 μg/ml) was loaded onto a quarter piece of a Thermonox disc and gelled by warming to room temperature for 15 minutes. The disc was then applied to the chorioallantoic membrane of a 10-days-old embryo, following preparation of the eggs by removing 2 ml of albumin from the 3-days-old embryo and by “opening a window” to the 7-day-old embryo. ECGS (50 μg/ml) in PBS was used to induce angiogenesis and 5 μg/ml of AS101 or SAS were mixed with ECGS. After 3-days incubation, the negative or positive response was assessed under a binocular. Positive response, namely the appearance of a typical spokewheel pattern of new blood vessels around the loaded samples, was determined by a blinded observer. Assays for each test sample were carried out three times, and each experiment contains 10 to 12 eggs/data point.

HUVEC endothelial cells = assay: Tube formation assay, HUVEC; format: cell-based; details: HUVEC on Matrigel, 3 hours
Method: Plates (48 wells) were coated with 150 μl of Matrigel and incubated at 37° C. for 1 hour to promote gelling. Svec4-10 or HUVEC cells (40,000 cells) in 0.5 ml of serum-free DMEM with varying concentration of AS101 or SAS were added to each well. For positive control, ECGS was added at a concentration of 50 μg/ml. All samples were performed in sextuplicate. After 3 hours incubation, the plates were fixed with methanol and stained with crystal violet. Randomly chosen fields were photographed and density of tube formation was analyzed by imageJ.

B16F10 cells = assay: Cell attachment assay, B16F10; format: cell-based, murine; details: B16F10, data not shown, compared with SVEC4-10
Method: The cell attachment assays were performed in sextuplicate in 96-well plates. The 1 μg of C16 or AG73 peptide in 60 μl double-distilled water was added to each well, and this volume was allowed to air dry overnight in a biosafety hood at room temperature (or fibronectin 20 ng/80 μl for 1 hour at 37° C.). Thereafter, nonspecific binding sites of the tissue culture plastic were blocked by adding 200 μl of 1% bovine serum albumin (BSA) in PBS for 1 hour at 37° C. LAN-1, B16F10 and SVEC4-10 cells were harvested by agitation, washed three times in serum-free DMEM and resuspended in 1% BSA-DMEM. After 20 minutes incubation in 1% BSA in a tube, cells were washed and resuspended in 0.1% BSA. The cells were counted using a hemocytometer and brought to a final cell count of 1×10^6/ml in the 0.1% BSA medium. […]
Next, 150 μl of the treated cell suspension was added to each well (20,000 cells/well), which had been coated with peptides, and incubated for 50 minutes at 37° C. […] 100 μl aliquot of 10% SDS was thereafter added to each well for cell lysis and dye release and absorption was read with a TECAN spectrophotometer at 570 nm.
Attached cells were washed with PBS without Ca^+2/Mg^+2. […] Dye bound to the cell is released by SDS and the absorption by the dye is measured by colorimetry at 570 nm. The amount of stained cells is then considered to be proportional to the measured absorption by the dye

Cl[TeH]1(Cl)(Cl)OCCO1 [AS101, ammonium trichloro(dioxyethylene-O,O′)tellurate]
vessel length and number, sprouting induced by ECGS (aortic arches): inhibit the vessel length and number | length of tubes exiting from arches (aortic arches): reduced their length | number of tubes exiting from arches (aortic arches): did not inhibit the number of tubes exiting from arches | toxicity in aortic arch assay (re-sprouting after washing) (aortic arches): non-toxic | cell attachment to antibodies against integrin β subunits (integrin β subunits): considerable inhibition | tumor growth and weight on chorioallantoic membrane (B16F10 melanoma cells): reduced tumor growth and weight | angiogenic capability of ECGS [1]: reduced the angiogenic capability of ECGS to baseline levels | number of tubes formed (HUVEC endothelial cells): reduced the number of tubes formed | cell attachment to C16 and AG73 peptides (B16F10 cells): similar

O=C1O[Te]23OC(=O)C(O2)C2O[Te]4(OC(=O)C(O4)C1O3)OC2=O [SAS, [TeO4(COCH)2]2]
vessel length and number, sprouting induced by ECGS (aortic arches): inhibit the vessel length and number | length of tubes exiting from arches (aortic arches): reduced their length | number of tubes exiting from arches (aortic arches): did not inhibit the number of tubes exiting from arches | toxicity in aortic arch assay (re-sprouting after washing) (aortic arches): non-toxic | cell attachment to antibodies against integrin β subunits (integrin β subunits): considerable inhibition | tumor growth and weight on chorioallantoic membrane (B16F10 melanoma cells): reduced tumor growth and weight | angiogenic capability of ECGS [1]: reduced the angiogenic capability of ECGS to baseline levels | number of tubes formed (HUVEC endothelial cells): reduced the number of tubes formed | cell attachment to C16 and AG73 peptides (B16F10 cells): similar
